{
  "source": "patent US20210196714A1",
  "about": "“COMPOSITIONS AND METHODS FOR TREATING DISORDERS CHARACTERIZED WITH ABERRANT RAS/MAPK SIGNALING” (Duke University, priority 2018, published 2021)",
  "assay_type_in_all_cases": "in vivo, zebrafish",
  "key": {"pMEK1/2": {"system": "pMEK1/2", "assay": "Western blot of pMEK1/2 in head lysate of 5 dpf embryos", "details": "100 nM or 500 nM", "description": "FIG. 7: dmDf attenuates hyperactive MEK signaling in vivo. (a) Western blot analysis for the level of pMEK1/2 from the head lysate of 5 dpf zebrafish embryos. Depletion of kmt2d (lane 4) elevates the abundance of pMEK1/2 in comparison to control embryos (lane 1). […] (b) Summary of the relative levels of pMEK1/2 from three independent experiments. *p<0.05 (n=3). (c) kmt2d morphants were treated with serially increasing concentrations of dmDf. The embryos were scored for CE phenotypes as described earlier (n>25 for each concentration. (d) The distance between MK and CH cartilages was measured from the same embryos as in (c). *p<0.05; **p<0.01. Error bars show SEM (standard error of the mean).\nThe phenotypic rescue of the zebrafish KS models by dmDf predicts a successful attenuation of hyperactive MEK signaling. To test this hypothesis directly, experiments were conducted that suppressed kmt2d, harvested and pooled protein from embryo heads (n=20/condition) and measured the abundance of phosphorylated (activated) MEK1/2 (pMEK1/2).\nZebrafish larvae (5 dpf; n=20) were decapitated and heads were homogenized with RIPA buffer (50 mM NaCl, 1% NP40, 50 mM Tris-HCl pH 7.5, 0.1% SDS, 0.5% Na deoxycholate, 1 mM Na3VO4, and 1 mM NaF). […]"}, "kmt2d morphants": {"system": "kmt2d morphants", "assay": "Brain cell proliferation (pHH3 immunostaining) in kmt2d morphants", "details": "100 nM, 2 dpf, listed as dmDf", "from_the_text": "Intellectual disability represents a major phenotype in KS, with some studies reporting almost 90% of patients to be affected (see, Wessels, M. W., et al. Clin Dysmorphol 11, 95-102 (2002)). […] Previous studies have shown that defects in proliferation in the developing zebrafish brain can be a proxy for neurodevelopmental and neurocognitive traits, especially in the context of microcephaly (see, Borck, G. et al. Genome Res 25, 609 (2015); Brooks, S. S. et al. Genetics 198, 723-33 (2014); O'Rawe, J. A. et al. Am J Hum Genet 97, 922-32 (2015); Wortmann, S. B. et al. Am J Hum Genet 96, 245-57 (2015)), a phenotype reported commonly in KS (see, Matsumoto, N. & Niikawa, N. Am J Med Genet C Semin Med Genet 117C, 57-65 (2003)).\n(§1) For convergence and extension (CE) phenotyping, embryos were scored as described (see, Leitch, C. C. et al. Nat Genet 40, 443-8 (2008)) at the 8-10 somite stage, and images were captured using an AZ100 microscope and NIS Elements software (Nikon). […] The distance between Meckel's (MK) and ceratohyal (CH) cartilages was measured on ventral bright field images with Image J (NIH). […] Fluorescence signal on embryo heads was imaged with the Nikon AZ100 microscope and DS-Qi1MC digital camera using […] Z-stacks to generate extended depth of focus images. Cell numbers were quantified using the ImageJ ICTN plugin (NIH). […]"}, "[1]": {"system": "kmt2d+/−×kmt2d+/− progeny", "assay": "Jaw defect in stable kmt2d mutant intercross progeny", "details": "100 mM dmDf, 5 dpf", "from_the_text": "FIG. 12: Treatment with dmDf rescues the defects of stable kmt2d mutant. kmt2d+/− adults were in-crossed and the embryos were then collected at 1 dpf, 2 dpf and 5 dpf to assess dmDf efficacy. […] Error bars show SEM (standard error of the mean).\nAlthough the small molecule testing data in CRISPR F0 mosaic models are consistent with morphant phenotypes (and rescue), experiments recognized the necessity of testing the potential efficacy of dmDf in a stable genetic model that is a better genotypic proxy to human patients. […] In addition to examining proliferation of cells in the brain, experiments assessed whether neural differentiation is affected (see, Van Laarhoven, P. M. et al. Hum Mol Genet 24, 4443-53 (2015)).\nas §1"}},
  "note": "Entries after “also recorded” stand apart in the source; their conditions may differ.",
  "data": [
    {"smiles": "CC(C)c1nc(-c2cccc(NS(=O)(=O)c3c(F)cccc3F)c2F)c(-c2ccnc(N)n2)s1", "note": "[Compound 8, desmethyl-Dabrafenib]", "values": [
      {"measurement": "abundance of pMEK1/2", "setting": "pMEK1/2; kmt2d suppressed, 5 dpf heads, listed as dmDf", "result": "attenuates hyperactivation of MEK1/2; also recorded: restored the abundance of pMEK1/2 to levels indistinguishable from wild type embryos"},
      {"measurement": "abundance of pMEK1/2", "setting": "pMEK1/2; uninjected embryos", "result": "neither concentration had an appreciable effect"},
      {"measurement": "total number of proliferating (pHH3+) cells in brain", "setting": "kmt2d morphants", "result": "significantly increases pHH3+ proliferating cells; also recorded: restored the total number of proliferating cells to wild type levels"},
      {"measurement": "mandibular length / jaw defect", "setting": "[1]", "result": "rescues significantly; also recorded: rescue of the mandibular length"}
    ]}
  ]
}
